Measurements: US12286452B2, “Amphiphilic aminoglycoside connexin hemichannel inhibitors” (Texas Tech University System, priority 2018, dated 2025)
Values after ≈ are worked out from the molar mass of the structure shown. Read-outs that look alike come from different tables or passages of the source.

Tests used:
Format in all cases: cell-based
human Cx26 HCs = target: T1, human Cx26 HCs (Homo sapiens, UniProt P29033); experiment: Cx26-dependent growth complementation assay in E. coli LB2003; settings: for IC50: first Table 2, read-out: IC50, inhibition of Cx26 by synthetic AGs
T1 construct: expressed in transfected cells; host or cells: E. coli LB2003 (carrying pREP4), transformed with pQE-Cx26, IPTG-induced
Protocol: These derivatives were prepared by sequential benzylation and methylation followed by reduction of azido groups or hydrogenolysis of the Bn. […] Connexin HC inhibition was conducted using a bacteria-based assay of HC function^39. In this assay, Cx26 HCs are expressed in E. coli LB2003 cells, which lack three major K^+ uptake systems (Kdp, Kup and Trk), and as a result they cannot grow in low-[K^+] media^39-41. However, growth of this E. coli strain in low-[K^+] medium can be rescued by expression of K^+-permeable channels such as connexin HCs^39, 42-43. Under the conditions of the assay (LB2003 cells expressing HCs and grown in low-K^+ medium), inhibition of the HCs reduces or abolishes growth^39, 42-43. This is a simple assay where bacterial growth in multi-well plates can be followed by measuring the absorbance at 600 nm (OD600)^29.
LB2003 cells generously provided by Dr. E. P. Bakker (Osnabruk University, Osnabruk, Germany) were transformed with the plasmid pQE-Cx26 (human Cx26 into pQE60) and pREP4. […] LB2003 cells cannot grow in low-[K^+] media because of insufficient K^+ uptake for growth due to the knockout of three key K^+ transporters (Atrk, Akup, Akdp strain)^2-4. Details and validation of the growth complementation assay have been published recently^2. In brief, competent LB2003 containing the pREP4 plasmid were transformed with pQE-Cx26. These cells were grown overnight in Luria-Bertani medium (BD, Franklin Lakes, NJ, USA) supplemented with 100 mM KCl (to allow growth) and 0.4 mg/mL ampicillin, and then washed four times with NLM (see below), to remove residual K^+ from the Luria-Bertani medium. The washed cells were resuspended in complementation growth medium to an OD600 of 0.2. NLM contained 46 mM Na2HPO4, 23 mM NaH2PO4, 8 mM (NH4)2SO4, 0.4 mM MgSO4, 0.012 mM FeSO4, 1 mM sodium citrate, 44 mM glucose and 0.006 mM thiamine hydrochloride, pH 7.0. KLM had the same composition that NLM except for the equimolar replacement of Na^+ with K^+. For growth complementation we used NLM+4 mM KCl, and Cx26 expression was induced with 0.5 mM IPTG at the time of dilution to OD600=0.2. For the assay, the cells were seeded in 96-well plates and were incubated at 30° C., with shaking at 500 rpm. OD600 was measured after 18-h incubation in a plate reader. The initial OD600=0.2 was subtracted for growth calculations. Data are presented as means±SEM. Statistically significant differences were calculated by the Student t-test for unpaired data. Data were obtained from at least 3 independent experiments, with 3 repeats per experiment.

Cx43 HCs = target: T2, Cx43 HCs (Homo sapiens, UniProt P17302); experiment: Cx43-dependent growth complementation assay in E. coli LB2003
T2 construct: expressed in transfected cells

[1] = tested on: Staphylococcus aureus (ATCC25923); experiment: Antibacterial assay (MIC); settings: read-out: MIC against S. aureus
Protocol: Antibacterial assay: The minimum inhibitory concentration (MIC) of the newly synthesized compounds was tested against E. coli (ATCC 25922) and Staphylococcus aureus (ATCC25923). The concentration of bacteria grown in Lysogeny Broth (LB) was adjusted to an absorbance at 600 nm (OD600) of 0.08-0.1 using LB. A series of 2-fold dilutions was made for each compound in 96-well plates (USA Scientific CC7682-7596) starting from 256 μg/mL, and then, 50 μL of the diluted bacteria suspension was transferred to the wells. Bacteria were incubated for 18-24 h at 35° C. before measuring OD600 to assess growth. Experiments for each compound were done at least in duplicates.

[2] = K46 members, the 20th table, read-out: IC50 (μM) against Cx43

T2 sequence (P17302 whole entry): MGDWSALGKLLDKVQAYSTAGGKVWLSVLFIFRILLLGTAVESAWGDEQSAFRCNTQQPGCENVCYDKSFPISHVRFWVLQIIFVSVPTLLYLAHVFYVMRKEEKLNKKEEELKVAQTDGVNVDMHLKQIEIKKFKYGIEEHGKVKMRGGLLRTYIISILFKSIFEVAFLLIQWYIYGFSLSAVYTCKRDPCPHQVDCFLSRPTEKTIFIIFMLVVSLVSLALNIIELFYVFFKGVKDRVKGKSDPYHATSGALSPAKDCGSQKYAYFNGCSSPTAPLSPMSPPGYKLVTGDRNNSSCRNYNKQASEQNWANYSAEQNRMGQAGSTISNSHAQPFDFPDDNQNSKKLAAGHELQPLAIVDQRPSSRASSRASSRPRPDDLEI

IC50 (human Cx26 HCs)	IC50 (Cx43 HCs; [2])	Cx43 Imax (maximal inhibition) (Cx43 HCs; the 12th table, Hill fit)	IC50 (Cx43 HCs; the 12th table, Hill fit, mean ± SEM, some n = 1, read-out: Cx43 IC50)	MIC [1]	Cx26 Imax (human Cx26 HCs; the 13th table)	Cx43 Imax (Cx43 HCs; the 13th table)	IC50 (Cx43 HCs; the 13th table, read-out: Cx43 IC50)	Compound
6.6 ± 0.5 µM	15 µM	122%	15 µM	64 mg/mL (≈ 83.7 mM)	–	–	–	NCC1OC(OC2C(N)CC(N)C(OC3OC(COCc4cccc5ccccc45)C(OCc4cccc5ccccc45)C(N)C3O)C2O)C(O)C(O)C1O (centres unmarked) [Compound 15, 4″,6″-Di-O-(1-naphthalenmethyl) kanamycin]
6.2 ± 0.7 µM	5.5 ± 2 µM	–	–	16 mg/mL (≈ 19.6 mM)	102 ± 2%	121 ± 25%	5.5 ± 2 µM	NCC1OC(OC2C(N)CC(N)C(OC3OC(COCc4cccc(-c5ccccc5)c4)C(OCc4cccc(-c5ccccc5)c4)C(N)C3O)C2O)C(O)C(O)C1O (centres unmarked) [Compound 16, 4″,6″-Di-O-(3-phenylbenzyl)-kanamycin]
